This is an account of results in US20080063660A1, “Method to reduce the physiologic effects of drugs on mammals” (Anarco, Inc., priority 1993, published 2008).

The subject of one data set is rabbits. Briefly: intravenous cocaine-HCl challenge of rabbits immunized with COALB. The protocol:
Rabbits were immunized with COALB by subcutaneous injection of 100 μg of the benzoylecgonine-conjugated immunogen every two weeks for a period of two months (four injections). Freund's complete adjuvant was used in the first injection and Freund's incomplete adjuvant was utilized for subsequent injections.

For data set [1] the following is noted: stated in brackets beside the i.v. challenge dose; cited from earlier work.

Where a name gives a salt, the structure may show the parent alone.

The term LD50 denotes the dose at which mortality reaches 50%. `COC(=O)[C@H]1[C@@H](OC(=O)c2ccccc2)C[C@@H]2CC[C@H]1N2C` [cocaine-HCl]: in the data set with rabbits (cocaine-HCl 2 mg/kg i.v. in sterile saline), the “physiologic/toxic effects of cocaine in control (un-immunized) rabbits” value is given as “marked grande maul convulsions”. Further, in the data set on rabbits (cocaine-HCl 2 mg/kg i.v., un-immunized rabbits), the “time to recovery of control rabbits after cocaine” value lay within 10 to 15 min. In data set [1], the 50% lethal dose (LD50) is given as 12 mg/kg.
